Results reported in patent US9850283B2, “Macrocyclic inhibitors of the PD-1/PD-L1 and CD80(B7-1)/PD-L1 protein/protein interactions” (BRISTOL-MYERS SQUIBB COMPANY, priority 2013, dated 2017).
Read-outs that look alike come from different tables or passages of the source. Starred links: 1 amine or outer side, 2 acyl side, 3 side chain; linkers in the order of their positions; H or OH if unused. Positions of bridges follow the written chain, without caps; N, C: chain ends. Non-standard residues stand in square brackets, D forms with d. Residues, ends and D or L forms follow the SMILES beside them. ξ: configuration not given here. X3 = O=C([C@@H]1C[C@@H](Cc2ccc(F)cc2)CN1[*:1])[*:2]; Phe(3,4,5-F3) = N[C@@H](Cc1cc(F)c(F)c(F)c1)C(=O)O; Pro(4R-NH2) = N[C@H]1CN[C@H](C(=O)O)C1; d(cisHyp) = O=C(O)[C@H]1C[C@@H](O)CN1; Bta = N[C@@H](Cc1csc2ccccc12)C(=O)O; Hyp = O=C(O)[C@@H]1C[C@@H](O)CN1; NMeF = CN[C@@H](Cc1ccccc1)C(=O)O; dHyp = O=C(O)[C@H]1C[C@H](O)CN1; dNMeNle = CCCC[C@@H](NC)C(=O)O; NMeNle = CCCC[C@H](NC)C(=O)O; Pip = O=C(O)[C@@H]1CCCCN1; dPip = O=C(O)[C@H]1CCCCN1; NMeA = CN[C@@H](C)C(=O)O; dDap = NC[C@@H](N)C(=O)O; Dab = NCC[C@H](N)C(=O)O; Dap = NC[C@H](N)C(=O)O; ξP = O=C(O)C1CCCN1

Assays:
CMV-specific T cells = CMV-specific T cells (Homo sapiens, UniProt Q9NZQ7); assay: CMV-specific T cell function assay (IFNγ secretion, ELISA); type: cell-based
Protocol: CMV-specific T Cell Function Assay. […] AIM-V medium (Life Technologies, Grand Island, N.Y.) supplemented with 10% heat-inactivated fetal bovine serum (FBS, Sigma, St Louis, Mo.) was used at a total volume of 200 µL/well in triplicate. The cells were cultured for 4 days at 37° C., 5% CO2 at which time culture supernatant was harvested for determination of secreted IFNγ by ELISA (OptEIA hIFNγ ELISA Kit, BD Biosciences, San Jose, Calif.).

Human PD-L1/PD-1 = target: T1, Human PD-L1/PD-1 (Homo sapiens, UniProt Q9NZQ7); assay: HTRF PD-1-Ig/PD-L1-His binding assay (human PD-L1)
T1 construct: made in house; host or cells: HEK293T
Outline: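 Interaction of Fc-tagged soluble PD-1 with His-tagged soluble PD-L1 is monitored by time-resolved FRET. Donor is europium cryptate anti-Ig (1 nM final) and acceptor is APC anti-His (20 nM final). Assay buffer is dPBS with 0.1% BSA and 0.05% Tween-20.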

[1] = target: T2, LK35.2-hPD-L1 cells / PE-labeled PD-1-Ig (Homo sapiens, UniProt Q9NZQ7); assay: LK35.2-hPD-L1 cell binding high-content screening assay; type: cell-based
T2 construct: expressed in transfected cells; host or cells: LK35.2 mouse B cell line
Outline: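 Compound effect on PD-1/PD-L1 binding is measured by imaging cell-associated phycoerythrin signal. Human PD-1-Ig (PE on Ig tag, 1 nM final) is applied with compound to a murine B cell line overexpressing human PD-L1 for 1 h at 37 °C in serum-containing RPMI.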

[2] = read-out: CMV Recall EC50 value
[3] = cell line of CBA not given (LK35.2-hPD-L1 or 293T-hPD-L1), read-out: CBA IC50 value
[4] = cluster symbol, read-out: HTRF IC50 cluster
[5] = value given instead of cluster, read-out: CMV Recall EC50 value
[6] = value given instead of cluster, read-out: HTRF IC50 value
[7] = cell binding assay, cell line not given, value given instead of cluster, read-out: CBA IC50 value

T1 sequence (Q9NZQ7 with tags, fused parts or gaps): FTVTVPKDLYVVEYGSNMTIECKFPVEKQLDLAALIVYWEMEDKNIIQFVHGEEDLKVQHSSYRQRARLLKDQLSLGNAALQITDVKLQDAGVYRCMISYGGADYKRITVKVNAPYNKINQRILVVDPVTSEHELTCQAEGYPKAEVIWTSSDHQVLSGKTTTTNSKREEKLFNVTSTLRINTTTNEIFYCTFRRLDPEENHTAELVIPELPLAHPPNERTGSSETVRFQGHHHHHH
T2 sequence (Q9NZQ7 19-290): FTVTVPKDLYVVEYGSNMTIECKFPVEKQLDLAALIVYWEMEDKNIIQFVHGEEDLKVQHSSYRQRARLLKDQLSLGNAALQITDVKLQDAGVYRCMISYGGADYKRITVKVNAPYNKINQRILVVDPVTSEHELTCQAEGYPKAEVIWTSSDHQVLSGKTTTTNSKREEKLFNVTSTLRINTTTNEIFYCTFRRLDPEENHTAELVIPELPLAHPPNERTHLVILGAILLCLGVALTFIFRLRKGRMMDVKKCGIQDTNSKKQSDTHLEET
Sequence of CMV-specific T cells (Q9NZQ7 19-290): as above

Row | EC50 (CMV-specific T cells; [2]) [nM] | IC50 (Human PD-L1/PD-1; read-out: HTRF IC50 value) [nM] | IC50 [1, 3] [nM] | EC50 (CMV-specific T cells; [5]) [nM] | IC50 (Human PD-L1/PD-1; [6]) [nM] | IC50 [1, 7] [nM] | SMILES | further results
1 | 2.93 | 6.24 | 4.04 |  |  |  | CCCC[C@H]1C(=O)N(C)[C@@H](CCCC)C(=O)N[C@@H](CN)C(=O)N[C@H](C(=O)NCC(N)=O)CSCC(=O)N[C@@H](Cc2ccc(O)cc2)C(=O)N(C)[C@@H](C)C(=O)N[C@@H](CC(=O)O)C(=O)N2CCC[C@H]2C(=O)N[C@@H](CN)C(=O)N[C@@H](CC(C)C)C(=O)N2C[C@H](O)C[C@H]2C(=O)N[C@@H](Cc2c[nH]c3ccccc23)C(=O)N[C@@H](CO)C(=O)N[C@@H](Cc2csc3ccccc23)C(=O)N1C [Example 1163] ({CH2CO}-Y[NMeA]DP[Dap]L[Hyp]WS[Bta][NMeNle][NMeNle][Dap]CG-NH2; thioether N-14) | 
2 | > 2500 |  |  |  |  |  | CCCC[C@@H]1C(=O)N(C)[C@H](CCCC)C(=O)N[C@@H](C)C(=O)N[C@@H](C(=O)NCC(N)=O)CSCC(=O)N[C@@H](Cc2ccc(O)cc2)C(=O)N2CCCC2C(=O)N[C@H](CC(=O)O)C(=O)N2CCC[C@H]2C(=O)N[C@H](CN)C(=O)N[C@@H](CC(=O)O)C(=O)N2CCCC2C(=O)N[C@H](Cc2c[nH]c3ccccc23)C(=O)N[C@@H](CCN)C(=O)N[C@@H](Cc2c[nH]c3ccccc23)C(=O)N1C (stereo partly shown) [Example 1210] ({CH2CO}-Y[ξP][dD]P[dDap]D[ξP][dW][Dab]W[dNMeNle][dNMeNle]A[dC]G-NH2; thioether N-14) | IC50 (Human PD-L1/PD-1; [4]): > 30.5 nM; IC50 ([1]; cluster symbol, cell line of CBA not given (LK35.2-hPD-L1 or 293T-hPD-L1), read-out: CBA IC50 cluster): > 74.3 nM
3 | 508 | 50.9 | 92.5 |  |  |  | CCCC[C@@H]1C(=O)N(C)[C@H](CCCC)C(=O)N[C@@H](C)C(=O)N[C@@H](C(=O)NCC(N)=O)CSCC(=O)N[C@@H](Cc2ccc(O)cc2)C(=O)N2CCCC2C(=O)N[C@H](CC(=O)O)C(=O)N2CCC[C@H]2C(=O)N[C@H](Cc2c[nH]cn2)C(=O)N[C@@H](CCC(=O)O)C(=O)N2CCCC2C(=O)N[C@H](Cc2c[nH]c3ccccc23)C(=O)N[C@@H](CCN)C(=O)N[C@@H](Cc2c[nH]c3ccccc23)C(=O)N1C (stereo partly shown) [Example 1215] ({CH2CO}-Y[ξP][dD]P[dH]E[ξP][dW][Dab]W[dNMeNle][dNMeNle]A[dC]G-NH2; thioether N-14) | 
4 | 21.9 | 16.5 | 4.92 |  |  |  | CCCC[C@H]1C(=O)N(C)[C@@H](CCCC)C(=O)N[C@@H](CCCNC(=N)N)C(=O)N[C@H](C(=O)NCC(N)=O)CSCC(=O)N[C@@H](Cc2ccc(O)cc2)C(=O)N2CCCC[C@H]2C(=O)N[C@@H](CC(N)=O)C(=O)N2CCC[C@H]2C(=O)N[C@@H](Cc2cnc[nH]2)C(=O)N[C@@H](CCC(=O)O)C(=O)N2C[C@H](O)C[C@H]2C(=O)N[C@@H](Cc2c[nH]c3ccccc23)C(=O)N[C@@H](CO)C(=O)N[C@@H](Cc2c[nH]c3ccccc23)C(=O)N1C [Example 1237] ({CH2CO}-Y[Pip]NPHE[Hyp]WSW[NMeNle][NMeNle]RCG-NH2; thioether N-14) | 
5 | 25.2 | 4.39 | 1.15 |  |  |  | CCCC[C@H]1C(=O)N2CCC[C@@H]2C(=O)N2C[C@H](N)C[C@H]2C(=O)N[C@@H](C(C)C)C(=O)N(C)[C@@H](Cc2ccccc2)C(=O)N[C@@H](Cc2ccc(O)cc2)C(=O)N2CCCC[C@@H]2C(=O)N[C@@H](Cc2c[nH]c3ccccc23)C(=O)N[C@@H](Cc2ccc(O)cc2)C(=O)N[C@@H](CC(C)C)C(=O)N[C@H](C(=O)NCC(N)=O)CSCC(=O)N[C@@H](Cc2cc(F)c(F)c(F)c2)C(=O)N(C)[C@@H](Cc2ccccc2)C(=O)N1C [Example 3194] ({CH2CO}-[Phe(3,4,5-F3)][NMeF][NMeNle][dP][Pro(4R-NH2)]V[NMeF]Y[dPip]WYLCG-NH2; thioether N-13) | 
6 |  |  |  |  |  |  | CCCC[C@H]1C(=O)N2C[C@H](O)C[C@@H]2C(=O)N[C@@H](CC(=O)O)C(=O)N[C@@H](C(C)C)C(=O)N(C)[C@@H](Cc2ccccc2)C(=O)N[C@@H](Cc2ccc(O)cc2)C(=O)N2CCCC[C@@H]2C(=O)N[C@@H](Cc2c[nH]c3ccccc23)C(=O)N[C@@H](Cc2ccc(O)cc2)C(=O)N[C@@H](CC(C)C)C(=O)N[C@H](C(=O)NCC(N)=O)CSCC(=O)N[C@@H](Cc2cc(F)c(F)c(F)c2)C(=O)N(C)[C@@H](Cc2ccccc2)C(=O)N1C [Example 3590] ({CH2CO}-[Phe(3,4,5-F3)][NMeF][NMeNle][d(cisHyp)]DV[NMeF]Y[dPip]WYLCG-NH2; thioether N-13) | EC50 (CMV-specific T cells; read-out: CMV Recall EC50 cluster, cluster symbol): 1000 nM; IC50 (Human PD-L1/PD-1; [4]): 0.385 to 6.74 nM; IC50 ([1]; cell binding assay, cell line not given, cluster symbol, read-out: CBA IC50 cluster): 0.158 to 4.71 nM
7 |  |  |  | 0.62 | 4 | 0.158 | CCCC[C@H]1C(=O)N2C[C@@H](O)C[C@@H]2C(=O)N[C@@H](CC(=O)O)C(=O)N[C@@H](C(C)C)C(=O)N(C)[C@@H](Cc2ccccc2)C(=O)N[C@@H](Cc2ccc(O)cc2)C(=O)N2CCCC[C@@H]2C(=O)N[C@@H](Cc2c[nH]c3ccccc23)C(=O)N[C@@H](Cc2ccc(O)cc2)C(=O)N[C@@H](CC(C)C)C(=O)N[C@H](C(=O)NCC(N)=O)CSCC(=O)N[C@@H](Cc2cc(F)c(F)c(F)c2)C(=O)N(C)[C@@H](Cc2ccccc2)C(=O)N1C [Example 3592] ({CH2CO}-[Phe(3,4,5-F3)][NMeF][NMeNle][dHyp]DV[NMeF]Y[dPip]WYLCG-NH2; thioether N-13) | 
8 |  |  |  | 2.3 | 7.43 | 1.16 | CCCC[C@H]1C(=O)N(C)[C@@H](CCCC)C(=O)N[C@@H](CCCNC(=N)N)C(=O)N[C@H](C(=O)NCC(N)=O)CSCC(=O)N[C@@H](Cc2ccc(O)cc2)C(=O)N(C)[C@@H](C)C(=O)N[C@@H](CCN)C(=O)N2CCC[C@H]2C(=O)N[C@@H](Cc2cnc[nH]2)C(=O)N[C@@H](CCC(=O)O)C(=O)N2C[C@H](O)C[C@H]2C(=O)N[C@@H](Cc2c[nH]c3ccccc23)C(=O)N[C@@H](CO)C(=O)N[C@@H](Cc2c[nH]c3ccccc23)C(=O)N1C [Example 5025] ({CH2CO}-Y[NMeA][Dab]PHE[Hyp]WSW[NMeNle][NMeNle]RCG-NH2; thioether N-14) | 
9 |  |  |  | 14.5 | 5.15 | 2.28 | CCCC[C@H]1C(=O)N(C)[C@@H](CCCC)C(=O)N[C@@H](CN)C(=O)N[C@H](C(=O)NCC(N)=O)CSCC(=O)N[C@@H](Cc2ccc(O)cc2)C(=O)N(C)[C@@H](C)C(=O)N[C@@H](CC(N)=O)C(=O)N2CCC[C@H]2C(=O)N[C@@H](Cc2cnc[nH]2)C(=O)N[C@@H](CCC(=O)O)C(=O)N2C[C@H](O)C[C@H]2C(=O)N[C@@H](Cc2c[nH]c3ccccc23)C(=O)N[C@@H](CO)C(=O)N[C@@H](Cc2c[nH]c3ccccc23)C(=O)N1C [Example 5062] ({CH2CO}-Y[NMeA]NPHE[Hyp]WSW[NMeNle][NMeNle][Dap]CG-NH2; thioether N-14) | 
10 |  |  |  |  |  |  | CCCC[C@H]1C(=O)N(C)[C@@H](CCCC)C(=O)N[C@@H](CCN)C(=O)N[C@H](C(=O)NCC(N)=O)CSCC(=O)N[C@@H](Cc2ccc(O)cc2)C(=O)N(C)[C@@H](C)C(=O)N[C@@H](CC(N)=O)C(=O)N2CCC[C@H]2C(=O)N[C@@H](Cc2c[nH]cn2)C(=O)N[C@@H](CCC(=O)O)C(=O)N2C[C@H](Cc3ccc(F)cc3)C[C@H]2C(=O)N[C@@H](Cc2c[nH]c3ccccc23)C(=O)N[C@@H](CCN)C(=O)N[C@@H](Cc2c[nH]c3ccccc23)C(=O)N1C [Example 13011] ({CH2CO}-Y[NMeA]NPHE[X3]W[Dab]W[NMeNle][NMeNle][Dab]CG-NH2; thioether N-14) | EC50 (CMV-specific T cells; numeric value, read-out: CMV Recall EC50 values): 38.3 nM
